Data published in article PMC2193274 (The Journal of Experimental Medicine, 2000).

Experiments:
[1] = target: Qa-1^b (Mus musculus, UniProt P06339); format: binding; details: competition with biotin-Qdm4C
[2] = system: T2 cells expressing Qa-1^b (T237); format: cell-based, human; details: for Inhibition of killing of T237 targets by Qa-1^b-Qdm tetramer-positive NK cells: 30 μM peptide overnight and during the 4-h assay, Fig. 6
[3] = system: Dk; details: cited from earlier work

Qa-1^b, sequence (P06339 21-304 limits assumed): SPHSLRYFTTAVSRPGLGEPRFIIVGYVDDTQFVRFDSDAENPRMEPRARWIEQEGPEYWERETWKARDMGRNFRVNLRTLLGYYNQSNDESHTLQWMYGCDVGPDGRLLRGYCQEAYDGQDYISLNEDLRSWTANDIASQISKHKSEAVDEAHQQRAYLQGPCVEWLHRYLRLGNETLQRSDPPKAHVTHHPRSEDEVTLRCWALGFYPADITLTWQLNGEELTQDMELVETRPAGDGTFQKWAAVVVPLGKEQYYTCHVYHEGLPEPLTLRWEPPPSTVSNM
Qa-1^b, sequence (P61769 21-119 partner): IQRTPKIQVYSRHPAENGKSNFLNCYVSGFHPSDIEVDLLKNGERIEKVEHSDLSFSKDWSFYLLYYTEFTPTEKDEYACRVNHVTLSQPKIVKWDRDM

In the case of AMACRTLLL [Qdm4C], the “Binding affinity for Qa-1 in competition assays compared with Qdm” value [1] is reported as “affinity similar or identical to Qdm”.

In the case of AMAPRTLLL [Qdm], the “Inhibition of lysis of T237 targets by tetramer-negative NK cells” value [2] is reported as “does not inhibit lysis” and the “Inhibition of killing of T237 targets by Qa-1^b-Qdm tetramer-positive NK cells” value [2] is reported as “markedly inhibit killing”.

In the case of KMAPRTLLL [Qdm P1], the “Inhibition of killing of T237 targets by Qa-1^b-Qdm tetramer-positive NK cells” value [2] is reported as “Substantial inhibition”.

For RRLGRTLLL [MT(389–397)], the “Binding to Dk” value [3] is given as “high affinity”.
